Source: patent publication US9486506B2 (Novo Nordisk A/S, priority 2011, dated 2016)
Numbered stars: 1 amine (or outer) side, 2 acyl side, 3 side chain; on linkers, the order of the positions; unused ones are H or OH. Side chains are listed from the residue outwards. Peptide text beside a SMILES is read from it. * marks the point of attachment. C18 diacid = O=C(O)CCCCCCCCCCCCCCCCC(=O)*; C16 diacid = O=C(O)CCCCCCCCCCCCCCC(=O)*; γGlu = O=C(O)[C@H](CCC(=O)[*:2])N[*:1]; AEEA = NCCOCCOCC(=O)O

What was measured:
glucagon receptor = target: T1, glucagon receptor (Homo sapiens, UniProt P47871); test: Assay (I) Glucagon activity (cAMP biosensor, FLIPR); format: cell-based
T1 construct: expressed in transfected cells

[1] = Assay (X) Chemical stability assessment by RP-UPLC; format: physicochemical; conditions: pH 8.15, 14 days at 37° C. vs 5° C., 333 μM

T1 sequence (P47871 26-477): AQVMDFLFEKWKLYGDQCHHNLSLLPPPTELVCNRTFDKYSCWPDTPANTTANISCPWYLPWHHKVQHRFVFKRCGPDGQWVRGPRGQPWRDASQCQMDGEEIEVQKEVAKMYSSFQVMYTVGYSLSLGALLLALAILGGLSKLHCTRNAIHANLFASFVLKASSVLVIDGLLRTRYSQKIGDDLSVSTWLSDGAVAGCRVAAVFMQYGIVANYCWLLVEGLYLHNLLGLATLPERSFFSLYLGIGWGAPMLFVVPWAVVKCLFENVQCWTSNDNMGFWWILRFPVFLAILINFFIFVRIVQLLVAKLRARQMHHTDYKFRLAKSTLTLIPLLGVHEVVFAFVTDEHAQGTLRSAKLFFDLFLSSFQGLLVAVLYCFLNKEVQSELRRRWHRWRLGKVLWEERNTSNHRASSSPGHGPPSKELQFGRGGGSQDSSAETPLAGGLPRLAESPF

Row | Structure (SMILES) | EC50 (glucagon receptor) [nM] | Chemical stability [Purity loss/14 days 37 C.] [1] [%]
1 | CC(C)C[C@H](NC(=O)[C@H](Cc1c[nH]c2ccccc12)NC(=O)[C@H](CCCCNC(=O)CC[C@H](NC(=O)CC[C@H](NC(=O)CC[C@H](NC(=O)CC[C@H](NC(=O)CCCCCCCCCCCCCCCCC(=O)O)C(=O)O)C(=O)O)C(=O)O)C(=O)O)NC(=O)[C@@H](NC(=O)[C@H](Cc1ccccc1)NC(=O)[C@H](CC(=O)O)NC(=O)[C@H](CCC(N)=O)NC(=O)[C@H](C)NC(=O)[C@H](CCCNC(=N)N)NC(=O)[C@H](CCCNC(=N)N)NC(=O)[C@@H](NC(=O)[C@H](CC(=O)O)NC(=O)[C@H](CC(C)C)NC(=O)[C@H](Cc1ccc(O)cc1)NC(=O)[C@H](CCCCN)NC(=O)[C@H](CO)NC(=O)[C@H](Cc1ccc(O)cc1)NC(=O)[C@H](CC(=O)O)NC(=O)[C@H](CO)NC(=O)[C@@H](NC(=O)[C@H](Cc1ccccc1)NC(=O)[C@@H](NC(=O)CNC(=O)[C@H](CCC(N)=O)NC(=O)[C@H](CO)NC(=O)[C@@H](N)Cc1c[nH]cn1)[C@@H](C)O)[C@@H](C)O)C(C)C)C(C)C)C(=O)N[C@@H](CC(C)C)C(=O)N[C@@H](CO)C(=O)N[C@H](C(=O)O)[C@@H](C)O [Example 78, N^ε24-[(4S)-4-carboxy-4-[[(4S)-4-carboxy-4-[[(4S)-4-carboxy-4-[[(4S)-4-carboxy-4-(17-carboxyheptadecanoylamino)butanoyl]amino]butanoyl]amino]butanoyl]amino]butanoyl]-[Val16,Lys24,Leu27,Ser28]-Glucagon] | 0.134 | 4.3
2 | CC[C@H](C)[C@H](NC(=O)[C@H](CC(=O)O)NC(=O)[C@H](CC(C)C)NC(=O)[C@H](Cc1ccc(O)cc1)NC(=O)[C@H](CCCCN)NC(=O)[C@H](CO)NC(=O)[C@H](Cc1ccc(O)cc1)NC(=O)[C@H](CC(=O)O)NC(=O)[C@H](CO)NC(=O)[C@@H](NC(=O)[C@H](Cc1ccccc1)NC(=O)[C@@H](NC(=O)CNC(=O)[C@H](CCC(N)=O)NC(=O)[C@H](CO)NC(=O)[C@@H](N)Cc1c[nH]cn1)[C@@H](C)O)[C@@H](C)O)C(=O)N[C@@H](CCCNC(=N)N)C(=O)N[C@@H](CCCNC(=N)N)C(=O)N[C@@H](C)C(=O)N[C@@H](CCC(N)=O)C(=O)N[C@@H](CC(=O)O)C(=O)N[C@@H](Cc1ccccc1)C(=O)N[C@H](C(=O)N[C@@H](CCCCNC(=O)CC[C@H](NC(=O)CC[C@H](NC(=O)CC[C@H](NC(=O)CC[C@H](NC(=O)CCCCCCCCCCCCCCCCC(=O)O)C(=O)O)C(=O)O)C(=O)O)C(=O)O)C(=O)N[C@@H](Cc1c[nH]c2ccccc12)C(=O)N[C@@H](CC(C)C)C(=O)N[C@@H](CC(C)C)C(=O)N[C@@H](CO)C(=O)N[C@H](C(=O)O)[C@@H](C)O)C(C)C [Example 79, N^ε24-[(4S)-4-carboxy-4-[[(4S)-4-carboxy-4-[[(4S)-4-carboxy-4-[[(4S)-4-carboxy-4-(17-carboxyheptadecanoylamino)butanoyl]amino]butanoyl]amino]butanoyl]amino]butanoyl]-[Ile16,Lys24,Leu27,Ser28]-Glucagon] | 0.189 | 3.8
3 | CC(C)C[C@H](NC(=O)[C@H](Cc1ccc(O)cc1)NC(=O)[C@H](CCCCN)NC(=O)[C@H](CO)NC(=O)[C@H](Cc1ccc(O)cc1)NC(=O)[C@H](CC(=O)O)NC(=O)[C@H](CO)NC(=O)[C@@H](NC(=O)[C@H](Cc1ccccc1)NC(=O)[C@@H](NC(=O)CNC(=O)[C@H](CCC(N)=O)NC(=O)[C@H](CO)NC(=O)[C@@H](N)Cc1c[nH]cn1)[C@@H](C)O)[C@@H](C)O)C(=O)N[C@@H](CC(=O)O)C(=O)N[C@@H](C)C(=O)N[C@@H](CCCNC(=N)N)C(=O)N[C@@H](CCCNC(=N)N)C(=O)N[C@@H](C)C(=O)N[C@@H](CCC(N)=O)C(=O)N[C@@H](CC(=O)O)C(=O)N[C@@H](Cc1ccccc1)C(=O)N[C@H](C(=O)N[C@@H](CCCCNC(=O)CC[C@H](NC(=O)CC[C@H](NC(=O)COCCOCCNC(=O)COCCOCCNC(=O)CC[C@H](NC(=O)CCCCCCCCCCCCCCC(=O)O)C(=O)O)C(=O)O)C(=O)O)C(=O)N[C@@H](Cc1c[nH]c2ccccc12)C(=O)N[C@@H](CC(C)C)C(=O)N[C@@H](CC(C)C)C(=O)N[C@@H](CO)C(=O)N[C@H](C(=O)O)[C@@H](C)O)C(C)C [Example 83, N^ε24-[(4S)-4-carboxy-4-[[(4S)-4-carboxy-4-[[2-[2-[2-[[2-[2-[2-[[(4S)-4-carboxy-4-(15-carboxypentadecanoylamino)butanoyl]amino]ethoxy]ethoxy]acetyl]amino]ethoxy]ethoxy]acetyl]amino]butanoyl]amino]butanoyl]-[Ala16,Lys24,Leu27,Ser28]-Glucagon] | 0.016 | 10.3
4 | CC(C)C[C@H](NC(=O)[C@H](Cc1ccc(O)cc1)NC(=O)[C@H](CCCNC(=N)N)NC(=O)[C@H](CO)NC(=O)[C@H](Cc1ccc(O)cc1)NC(=O)[C@H](CC(=O)O)NC(=O)[C@H](CO)NC(=O)[C@@H](NC(=O)[C@H](Cc1ccccc1)NC(=O)[C@@H](NC(=O)CNC(=O)[C@H](CCC(N)=O)NC(=O)[C@H](CO)NC(=O)[C@@H](N)Cc1c[nH]cn1)[C@@H](C)O)[C@@H](C)O)C(=O)N[C@@H](CC(=O)O)C(=O)N[C@@H](C)C(=O)N[C@@H](CCCNC(=N)N)C(=O)N[C@@H](CCCNC(=N)N)C(=O)N[C@@H](C)C(=O)N[C@@H](CCC(N)=O)C(=O)N[C@@H](CC(=O)O)C(=O)N[C@@H](Cc1ccccc1)C(=O)N[C@H](C(=O)N[C@@H](CCCCNC(=O)CC[C@H](NC(=O)CC[C@H](NC(=O)COCCOCCNC(=O)COCCOCCNC(=O)CC[C@H](NC(=O)CCCCCCCCCCCCCCC(=O)O)C(=O)O)C(=O)O)C(=O)O)C(=O)N[C@@H](Cc1c[nH]c2ccccc12)C(=O)N[C@@H](CC(C)C)C(=O)N[C@@H](CC(C)C)C(=O)N[C@@H](CO)C(=O)N[C@H](C(=O)O)[C@@H](C)O)C(C)C [Example 84, N^ε24-[(4S)-4-carboxy-4-[[(4S)-4-carboxy-4-[[2-[2-[2-[[2-[2-[2-[[(4S)-4-carboxy-4-(15-carboxypentadecanoylamino)butanoyl]amino]ethoxy]ethoxy]acetyl]amino]ethoxy]ethoxy]acetyl]amino]butanoyl]amino]butanoyl]-[Arg12,Ala16,Lys24,Leu27,Ser28]-Glucagon] (H-HSQGTFTSDYSRYLDARRAQDFVK([γGlu-γGlu-AEEA-AEEA-γGlu-C16 diacid])WLLST-OH) | 0.022 | 10.7
5 | CC(C)C[C@H](NC(=O)[C@H](CC(=O)O)NC(=O)[C@H](CC(C)C)NC(=O)[C@H](Cc1ccc(O)cc1)NC(=O)[C@H](CCCCN)NC(=O)[C@H](CO)NC(=O)[C@H](Cc1ccc(O)cc1)NC(=O)[C@H](CC(=O)O)NC(=O)[C@H](CO)NC(=O)[C@@H](NC(=O)[C@H](Cc1ccccc1)NC(=O)[C@@H](NC(=O)CNC(=O)[C@H](CCC(N)=O)NC(=O)[C@H](CO)NC(=O)[C@@H](N)Cc1c[nH]cn1)[C@@H](C)O)[C@@H](C)O)C(=O)N[C@@H](CCCNC(=N)N)C(=O)N[C@@H](CCCNC(=N)N)C(=O)N[C@@H](C)C(=O)N[C@@H](CCC(N)=O)C(=O)N[C@@H](CC(=O)O)C(=O)N[C@@H](Cc1ccccc1)C(=O)N[C@H](C(=O)N[C@@H](CCCCNC(=O)CC[C@H](NC(=O)CC[C@H](NC(=O)COCCOCCNC(=O)COCCOCCNC(=O)CC[C@H](NC(=O)CCCCCCCCCCCCCCC(=O)O)C(=O)O)C(=O)O)C(=O)O)C(=O)N[C@@H](Cc1c[nH]c2ccccc12)C(=O)N[C@@H](CC(C)C)C(=O)N[C@@H](CC(C)C)C(=O)N[C@@H](CO)C(=O)N[C@H](C(=O)O)[C@@H](C)O)C(C)C [Example 85, N^ε24-[(4S)-4-carboxy-4-[[(4S)-4-carboxy-4-[[2-[2-[2-[[2-[2-[2-[[(4S)-4-carboxy-4-(15-carboxypentadecanoylamino)butanoyl]amino]ethoxy]ethoxy]acetyl]amino]ethoxy]ethoxy]acetyl]amino]butanoyl]amino]butanoyl]-[Leu16,Lys24,Leu27,Ser28]-Glucagon] | 0.039 | 7.4
6 | CC(C)C[C@H](NC(=O)[C@H](CC(=O)O)NC(=O)[C@H](CC(C)C)NC(=O)[C@H](Cc1ccc(O)cc1)NC(=O)[C@H](CCCNC(=N)N)NC(=O)[C@H](CO)NC(=O)[C@H](Cc1ccc(O)cc1)NC(=O)[C@H](CC(=O)O)NC(=O)[C@H](CO)NC(=O)[C@@H](NC(=O)[C@H](Cc1ccccc1)NC(=O)[C@@H](NC(=O)CNC(=O)[C@H](CCC(N)=O)NC(=O)[C@H](CO)NC(=O)[C@@H](N)Cc1c[nH]cn1)[C@@H](C)O)[C@@H](C)O)C(=O)N[C@@H](CCCNC(=N)N)C(=O)N[C@@H](CCCNC(=N)N)C(=O)N[C@@H](C)C(=O)N[C@@H](CCC(N)=O)C(=O)N[C@@H](CC(=O)O)C(=O)N[C@@H](Cc1ccccc1)C(=O)N[C@H](C(=O)N[C@@H](CCCCNC(=O)CC[C@H](NC(=O)CC[C@H](NC(=O)CC[C@H](NC(=O)CC[C@H](NC(=O)CCCCCCCCCCCCCCCCC(=O)O)C(=O)O)C(=O)O)C(=O)O)C(=O)O)C(=O)N[C@@H](Cc1c[nH]c2ccccc12)C(=O)N[C@@H](CC(C)C)C(=O)N[C@@H](CC(C)C)C(=O)N[C@@H](CO)C(=O)N[C@H](C(=O)O)[C@@H](C)O)C(C)C [Example 86, N^ε24-[(4S)-4-carboxy-4-[[(4S)-4-carboxy-4-[[(4S)-4-carboxy-4-[[(4S)-4-carboxy-4-(17-carboxyheptadecanoylamino)butanoyl]amino]butanoyl]amino]butanoyl]amino]butanoyl]-[Arg12,Leu16,Lys24,Leu27,Ser28]-Glucagon] (H-HSQGTFTSDYSRYLDLRRAQDFVK([γGlu-γGlu-γGlu-γGlu-C18 diacid])WLLST-OH) | 0.343 | 3.7
